# Laboratory results from PubChem BioAssay (NCI).
#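 48-hour exposure; five concentrations; linearly interpolated endpoints. GI50 marks 50% less growth. TGI denotes the concentration required for complete inhibition of growth.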
# Tests used:
# Assay in all cases: DTP human tumour cell line panel, 48 h
# [1] = test system: NCI-H460 lung
# [2] = test system: RXF 393 renal
# [3] = test system: HL-60(TB) leukemia
# [4] = test system: A498 renal
# [5] = test system: 786-0 renal
# [6] = test system: NCI-H23 lung
# [7] = test system: T-47D breast
# [8] = test system: UO-31 renal
# [9] = test system: NCI-H522 lung
# [10] = test system: M14 melanoma
# [11] = test system: BT-549 breast
# [12] = test system: MOLT-4 leukemia
# [13] = test system: SN12C renal
# [14] = test system: SK-OV-3 ovarian
# [15] = test system: HS 578T breast
# [16] = test system: SF-539 CNS
# [17] = test system: SF-295 CNS
# [18] = test system: HOP-62 NSCLC
# [19] = test system: TK-10 renal
# [20] = test system: OVCAR-8 ovarian
# [21] = test system: IGROV1 ovarian
# [22] = test system: U251 CNS
# [23] = test system: OVCAR-4 ovarian
# [24] = test system: NCI-H226 lung
# [25] = test system: A549 NSCLC
# [26] = test system: LOX IMVI melanoma
# [27] = test system: ACHN renal
# [28] = test system: MDA-MB-435
# [29] = test system: DU-145 prostate
# [30] = test system: EKVX NSCLC
# [31] = test system: SK-MEL-28 melanoma
# [32] = test system: COLO 205 colon
# [33] = test system: CAKI-1 renal
# [34] = test system: CCRF-CEM leukemia
# [35] = test system: SF-268 CNS
# [36] = test system: SK-MEL-5 melanoma
# [37] = test system: MDA-MB-231 breast
# [38] = test system: SNB-75 CNS
# [39] = test system: NCI/ADR-RES ovarian
# [40] = test system: HCC-2998 colon
# [41] = test system: HT29 colon
# [42] = test system: OVCAR-5 ovarian
# [43] = test system: MALME-3M melanoma
# [44] = test system: KM12 colon
# [45] = test system: HCT-116 colon
# [46] = test system: HCT-15 colon
# [47] = test system: PC-3 prostate
# [48] = test system: SW-620 colon
# [49] = test system: SK-MEL-2 melanoma
# [50] = test system: RPMI-8226 leukemia
# [51] = test system: OVCAR-3 ovarian
# [52] = test system: MCF7 breast
# [53] = test system: UACC-257 melanoma
# [54] = test system: SNB-19 CNS
# [55] = test system: K-562 leukemia
# [56] = test system: UACC-62 melanoma
# [57] = test system: HOP-92 NSCLC
smiles,measurement,setting,value
CCOC(=O)c1cnc(SCc2ccc(Cl)c(Cl)c2)nc1N1CC1,GI50,[1],2.88 µM
same,TGI,[1],7.66 µM
same,GI50,[2],4.04 µM
same,TGI,[2],16.2 µM
same,GI50,[3],1720 nM
same,TGI,[3],9.13 µM
same,GI50,[4],2820 nM
same,TGI,[4],14.4 µM
same,GI50,[5],3.24 µM
same,TGI,[5],14.1 µM
same,GI50,[6],3.62 µM
same,TGI,[6],14.5 µM
same,GI50,[7],3.15 µM
same,TGI,[7],19.5 µM
same,GI50,[8],1870 nM
same,TGI,[8],7.63 µM
same,GI50,[9],2230 nM
same,TGI,[9],6.88 µM
same,GI50,[10],2.89 µM
same,TGI,[10],11.7 µM
same,GI50,[11],2.88 µM
same,TGI,[11],13.6 µM
same,GI50,[12],3.27 µM
same,TGI,[12],15 µM
same,GI50,[13],4.37 µM
same,TGI,[13],21.2 µM
same,GI50,[14],2.85 µM
same,TGI,[14],10.4 µM
same,GI50,[15],2310 nM
same,TGI,[15],7.01 µM
same,GI50,[16],3.3 µM
same,TGI,[16],12.3 µM
same,GI50,[17],2430 nM
same,TGI,[17],8.99 µM
same,GI50,[18],2.95 µM
same,TGI,[18],13.6 µM
same,GI50,[19],3.87 µM
same,TGI,[19],15.2 µM
same,GI50,[20],3.6 µM
same,TGI,[20],30.2 µM
same,GI50,[21],2.2 µM
same,GI50,[22],3.71 µM
same,TGI,[22],18.2 µM
same,GI50,[23],3.17 µM
same,TGI,[23],14 µM
same,GI50,[24],5.01 µM
same,TGI,[24],18.9 µM
same,GI50,[25],3.72 µM
same,TGI,[25],16.1 µM
same,GI50,[26],1 µM
same,TGI,[26],5.73 µM
same,GI50,[27],3.12 µM
same,TGI,[27],13.2 µM
same,GI50,[28],1970 nM
same,TGI,[28],11.4 µM
same,GI50,[29],2.98 µM
same,TGI,[29],9.73 µM
same,GI50,[30],3.8 µM
same,TGI,[30],18.6 µM
same,GI50,[31],5.88 µM
same,TGI,[31],19.9 µM
same,GI50,[32],2.9 µM
same,TGI,[32],13.2 µM
same,GI50,[33],2.08 µM
same,TGI,[33],6.98 µM
same,GI50,[34],2.82 µM
same,TGI,[34],28.1 µM
same,GI50,[35],3.05 µM
same,TGI,[35],12.2 µM
same,GI50,[36],3.39 µM
same,TGI,[36],12.6 µM
same,GI50,[37],6.12 µM
same,TGI,[37],27.2 µM
same,GI50,[38],2.05 µM
same,TGI,[38],6.09 µM
same,GI50,[39],2910 nM
same,TGI,[39],8.72 µM
same,GI50,[40],2.07 µM
same,TGI,[40],4.73 µM
same,GI50,[41],2700 nM
same,TGI,[41],12.2 µM
same,GI50,[42],4.67 µM
same,TGI,[42],19.4 µM
same,GI50,[43],3.33 µM
same,TGI,[43],14.8 µM
same,GI50,[44],3.13 µM
same,TGI,[44],12.5 µM
same,GI50,[45],900 nM
same,TGI,[45],10.9 µM
same,GI50,[46],1310 nM
same,TGI,[46],14.4 µM
same,GI50,[47],2.74 µM
same,TGI,[47],15.2 µM
same,GI50,[48],1740 nM
same,TGI,[48],13.8 µM
same,GI50,[49],3.26 µM
same,TGI,[49],11.1 µM
same,GI50,[50],2.54 µM
same,TGI,[50],9.64 µM
same,GI50,[51],2.63 µM
same,TGI,[51],7 µM
same,GI50,[52],1270 nM
same,TGI,[52],11.4 µM
same,GI50,[53],4.78 µM
same,TGI,[53],19.8 µM
same,GI50,[54],6.93 µM
same,TGI,[54],23.8 µM
same,GI50,[55],1150 nM
same,TGI,[55],14.8 µM
same,GI50,[56],4.23 µM
same,TGI,[56],19.5 µM
O=C(Nc1ccncc1)C(=O)c1cn(S(=O)(=O)c2ccc(Br)cc2)c2ccccc12,GI50,[1],11.3 µM
same,TGI,[1],> 100 µM
same,GI50,[2],7.28 µM
same,TGI,[2],> 100 µM
same,GI50,[3],2410 nM
same,TGI,[3],> 100 µM
same,GI50,[4],3170 nM
same,TGI,[4],> 100 µM
same,GI50,[5],46.3 µM
same,TGI,[5],> 100 µM
same,GI50,[6],4.74 µM
same,TGI,[6],> 100 µM
same,GI50,[7],7.74 µM
same,TGI,[7],> 100 µM
same,GI50,[8],> 100000 nM
same,TGI,[8],> 100 µM
same,GI50,[9],1940 nM
same,TGI,[9],> 100 µM
same,GI50,[10],5.74 µM
same,TGI,[10],> 100 µM
same,GI50,[11],11.8 µM
same,TGI,[11],> 100 µM
same,GI50,[13],43.5 µM
same,TGI,[13],> 100 µM
same,GI50,[14],19.9 µM
same,TGI,[14],> 100 µM
same,GI50,[15],> 100000 nM
same,TGI,[15],> 100 µM
same,GI50,[16],8.03 µM
same,TGI,[16],> 100 µM
same,GI50,[17],2260 nM
same,TGI,[17],> 100 µM
same,GI50,[18],3.67 µM
same,TGI,[18],38.7 µM
same,GI50,[19],15.1 µM
same,TGI,[19],> 100 µM
same,GI50,[20],5.9 µM
same,TGI,[20],> 100 µM
same,GI50,[21],8.55 µM
same,TGI,[21],> 100 µM
same,GI50,[22],6.41 µM
same,TGI,[22],> 100 µM
same,GI50,[23],15.1 µM
same,TGI,[23],> 100 µM
same,GI50,[24],20.9 µM
same,TGI,[24],> 100 µM
same,GI50,[25],15.6 µM
same,TGI,[25],> 100 µM
same,GI50,[26],7.49 µM
same,TGI,[26],> 100 µM
same,GI50,[27],9.13 µM
same,TGI,[27],> 100 µM
same,GI50,[28],459 nM
same,TGI,[28],3.49 µM
same,GI50,[29],19 µM
same,TGI,[29],> 100 µM
same,GI50,[30],3.81 µM
same,TGI,[30],> 100 µM
same,GI50,[31],4.77 µM
same,TGI,[31],> 100 µM
same,GI50,[57],2140 nM
same,TGI,[57],22.4 µM
same,GI50,[32],27.7 µM
same,TGI,[32],> 100 µM
same,GI50,[33],4.44 µM
same,TGI,[33],> 100 µM
same,GI50,[34],7.67 µM
same,TGI,[34],> 100 µM
same,GI50,[35],8.47 µM
same,TGI,[35],> 100 µM
same,GI50,[36],3.5 µM
same,TGI,[36],37.5 µM
same,GI50,[37],10.2 µM
same,TGI,[37],83 µM
same,GI50,[38],4 µM
same,TGI,[38],41.7 µM
same,GI50,[39],2650 nM
same,TGI,[39],> 100 µM
same,GI50,[40],23.6 µM
same,TGI,[40],> 100 µM
same,GI50,[41],2820 nM
same,TGI,[41],> 100 µM
same,GI50,[42],> 100 µM
same,TGI,[42],> 100 µM
same,GI50,[43],24.2 µM
same,TGI,[43],> 100 µM
same,GI50,[44],3.88 µM
same,TGI,[44],> 100 µM
same,GI50,[45],3710 nM
same,TGI,[45],> 100 µM
same,GI50,[46],3810 nM
same,TGI,[46],> 100 µM
same,GI50,[47],8.87 µM
same,TGI,[47],> 100 µM
same,GI50,[48],4180 nM
same,TGI,[48],> 100 µM
same,GI50,[49],32 µM
same,TGI,[49],> 100 µM
same,GI50,[50],4.56 µM
same,TGI,[50],> 100 µM
same,GI50,[51],4.54 µM
same,TGI,[51],> 100 µM
same,GI50,[53],7.62 µM
same,TGI,[53],> 100 µM
same,GI50,[54],14.1 µM
same,TGI,[54],> 100 µM
same,GI50,[55],2490 nM
same,TGI,[55],> 100 µM
same,GI50,[56],3.79 µM
same,TGI,[56],> 100 µM
